Results reported in PMC6272903, “Synthesis and Structure-Activity Relationship Analysis of 5-HT7 Receptor Antagonists: Piperazin-1-yl Substituted Unfused Heterobiaryls” (Molecules, 2016).
“And” between values parts separate entries of the source, which are not always exact repeats. Equal entries are not always repeated. Structures can show the parent of a compound that is named as a salt.

Test system: not given
Assay: not given
Details: not given

melting point	Compound
241 to 242 °C	c1cc(-c2ccoc2)nc(N2CCNCC2)n1 (as salt: hydrobromid) [Compound 1, 4-(3-Furyl)-2-(piperazin-1-yl)pyrimidine]
274 to 277 °C	CCCN1CCN(c2nccc(-c3ccoc3)n2)CC1 (as salt: hydrobromid) [Compound 4, 4-(3-Furyl)-2-(4-propylpiperazin-1-yl)pyrimidine]
> 280 °C	c1ccc(CN2CCN(c3nccc(-c4ccoc4)n3)CC2)cc1 (as salt: hydrobromid) [Compound 5, 2-(4-Benzylpiperazin-1-yl)-4-(3-furyl)pyrimidine]
287 to 288 °C	CCc1cc(-c2ccoc2)nc(N2CCN(C)CC2)n1 (as salt: hydrobromid) [Compound 12, 4-Ethyl-6-(3-furyl)-2-(4-methylpiperazin-1-yl)pyrimidine]
179 to 180 °C	CCCCc1cc(-c2ccoc2)nc(N2CCN(C)CC2)n1 (as salt: hydrobromid) [Compound 13, 4-(n-Butyl)-6-(3-furyl)-2-(4-methylpiperazin-1-yl)pyrimidine]
206 to 208 °C	CCCc1cnc(N2CCN(C)CC2)nc1-c1ccoc1 (as salt: hydrobromid) [Compound 21, 4-(3-Furyl)-2-(4-methylpiperazino)-5-propylpyrimidine]
203 °C (dec.)	CCCCc1nc(N2CCN(C)CC2)nc(-c2ccoc2)c1CCC (as salt: hydrobromid) [Compound 22, 4-n-Butyl-6-(3-furyl)-2-(4-methylpiperazino)-5-propylpyrimidine]
263 to 265 °C	Cc1occc1-c1ccnc(N2CCN(C)CC2)n1 (as salt: hydrobromid) [Compound 23, 4-(2-Methyl-3-furyl)-2-(4-methylpiperazin-1-yl)pyrimidine]
275 °C (dec.)	Cc1cc(-c2ccnc(N3CCN(C)CC3)n2)co1 (as salt: hydrobromid) [Compound 24, 4-(5-Methyl-3-furyl)-2-(4-methylpiperazin-1-yl)pyrimidine]
242 °C (dec.)	CCCCCCc1cc(-c2coc(C)c2)nc(N2CCN(C)CC2)n1 (as salt: hydrobromid) [Compound 25, 4-n-Hexyl-6-(5-methyl-3-furyl)-2-(4-methylpiperazin-1-yl)pyrimidine]
263 to 265 °C	Cc1ccc(-c2ccnc(N3CCN(C)CC3)n2)o1 (as salt: hydrobromid) [Compound 29, 4-(5-Methyl-2-furyl)-2-(4-methylpiperazin-1-yl)pyrimidine]
> 300 °C	CN1CCN(c2nccc(-c3cc4ccccc4o3)n2)CC1 (as salt: hydrobromid) [Compound 36, 4-(Benzofuran-2-yl)-2-(4-methylpiperazin-1-yl)pyrimidine]

Molecular target: T1, human 5-HT7b receptors (Homo sapiens, UniProt P34969)
T1 construct: expressed in transfected cells; host or cells: HEK293
T1 sequence (P34969 1-432): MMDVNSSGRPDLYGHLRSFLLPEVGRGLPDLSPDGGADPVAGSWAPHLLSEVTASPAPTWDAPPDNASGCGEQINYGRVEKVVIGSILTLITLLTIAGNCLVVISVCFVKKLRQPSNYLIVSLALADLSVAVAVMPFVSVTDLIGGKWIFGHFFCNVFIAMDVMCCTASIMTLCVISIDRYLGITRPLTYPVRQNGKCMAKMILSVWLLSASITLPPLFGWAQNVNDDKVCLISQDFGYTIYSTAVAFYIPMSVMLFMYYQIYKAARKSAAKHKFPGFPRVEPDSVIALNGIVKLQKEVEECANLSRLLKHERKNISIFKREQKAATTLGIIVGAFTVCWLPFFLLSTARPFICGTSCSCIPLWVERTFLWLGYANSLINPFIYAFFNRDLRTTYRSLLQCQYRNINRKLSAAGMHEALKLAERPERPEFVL
Assay: 5-HT7 competition radioligand binding assay ([3H]5-CT)
Details: HEK293 cells overexpressing human 5-HT7b receptors, at least two independent experiments in triplicate, read-out: Ki ± S.D. 5-HT7 binding affinity
Protocol: Novel scaffold endowed with 5-HT7R activity was identified by screening of the in-house compound library in a single compound concentration of 1 µM in a competition radioligand binding assay using [^3H]5-CT and HEK293 cells overexpressing the human 5-HT7b receptors.

Compound	Ki
CN1CCN(c2cccc(-c3ccoc3)c2)CC1 [Compound 60, 1-[3-(3-Furyl)phenyl]-4-methylpiperazine]	31 ± 4 nM
Cc1cc(-c2ccoc2)cc(N2CCN(C)CC2)c1 [Compound 61, 1-[3-(3-Furyl)-5-methylphenyl]-4-methylpiperazine]	37 ± 3 nM
CCCCc1cc(-c2ccoc2)cc(N2CCN(C)CC2)c1 [Compound 62, 1-[3-n-Butyl-5-(3-furyl)phenyl]-4-methylpiperazine]	106 ± 9 nM
CN1CCN(c2cccc(-c3ccco3)c2)CC1 [Compound 63, 1-[3-(2-Furyl)phenyl]-4-methylpiperazine]	914 ± 121 nM
Cc1cc(-c2ccco2)cc(N2CCN(C)CC2)c1 [Compound 64, 1-[3-(2-Furyl)-5-methylphenyl]-4-methylpiperazine]	312 ± 25 nM
CCCCc1cc(-c2ccco2)cc(N2CCN(C)CC2)c1 [Compound 65, 1-[3-n-Butyl-5-(2-furyl)phenyl]-4-methylpiperazine]	743 ± 66 nM
CN1CCN(c2cccc(-c3ccsc3)c2)CC1 [Compound 66, 1-Methyl-4-[3-(3-thienyl)phenyl]piperazine]	342 ± 51 nM
Cc1cc(-c2ccsc2)cc(N2CCN(C)CC2)c1 [Compound 67, 1-Methyl-4-[3-methyl-5-(3-thienyl)phenyl]piperazine]	47 ± 6 nM
CCCCc1cc(-c2ccsc2)cc(N2CCN(C)CC2)c1 [Compound 68, 1-[3-n-Butyl-5-(3-thienyl)phenyl]-4-methylpiperazine]	263 ± 19 nM
CN1CCN(c2cccc(-c3cccs3)c2)CC1 [Compound 69, 1-Methyl-4-[3-(2-thienyl)phenyl]piperazine]	542 ± 66 nM
Cc1cc(-c2cccs2)cc(N2CCN(C)CC2)c1 [Compound 70, 1-Methyl-4-[3-methyl-5-(2-thienyl)phenyl]piperazine]	297 ± 42 nM
CCCCc1cc(-c2cccs2)cc(N2CCN(C)CC2)c1 [Compound 71, 1-[3-n-Butyl-5-(2-thienyl)phenyl]-4-methylpiperazine]	734 ± 59 nM

Next, values leading:

Ki	Compound
2460 ± 343 nM	c1cc(-c2ccoc2)nc(NCCN2CCOCC2)n1 [Compound 45, 4-(3-Furyl)-N-[2-(morpholin-4-yl)ethyl]pyrimidin-2-amine]
1280 ± 187 nM	c1cc(-c2ccoc2)nc(NCCCc2ncc[nH]2)n1 [Compound 46, 4-(3-Furyl)-N-[3-(1H-imidazol-2-yl)propyl]pyrimidin-2-amine]
299 ± 42 nM	c1cc(-c2ccoc2)nc(N2CC[N+]3(CCOCC3)CC2)n1 [Compound 47, 4-[4-(3-Furyl)pyrimidin-2-yl]piperazine-1-spiro-1-morpholinium iodide]
1910 ± 235 nM	CN1CCN(c2nc(-c3ccoc3)c3ccccc3n2)CC1 [Compound 48, 4-(3-Furyl)-2-(methylpiperazin-1-yl)quinazoline]
7540 ± 1140 nM	CN1CCN(c2nc(N3CCN(C)CC3)c3ccccc3n2)CC1 [Compound 49, 2,4-bis(4-Methylpiperazin-1-yl)quinazoline]
> 10000 nM	CN(C)CCc1nc(N2CCN(C)CC2)nc2ccccc12 [Compound 50]
17 ± 2 nM	CN1CCN(c2cc(-c3ccoc3)ccn2)CC1 [Compound 51, 4-(3-Furyl)-2-(4-methylpiperazin-1-yl)pyridine]
307 ± 42 nM	CN1CCN(c2cc(-c3ccco3)ccn2)CC1 [Compound 52, 4-(2-Furyl)-2-(4-methylpiperazin-1-yl)pyridine]
396 ± 55 nM	CN1CCN(c2cc(-c3cccs3)ccn2)CC1 [Compound 53, 2-(4-Methylpiperazin-1-yl)-4-(2-thienyl)pyridine]
8 ± 1 nM	Cc1cc(-c2ccoc2)cc(N2CCN(C)CC2)n1 [Compound 54, 4-(3-Furyl)-2-methyl-6-(4-methylpiperazin-1-yl)pyridine]
139 ± 22 nM	Cc1cc(-c2ccco2)cc(N2CCN(C)CC2)n1 [Compound 55, 4-(2-Furyl)-2-methyl-6-(4-methylpiperazin-1-yl)pyridine]
117 ± 12 nM	Cc1cc(-c2cccs2)cc(N2CCN(C)CC2)n1 [Compound 56, 2-Methyl-6-(4-methylpiperazin-1-yl)-4-(2-thienyl)pyridine]
8 nM and 11 nM	CN1CCN(c2cccc(-c3ccoc3)n2)CC1 [Compound 57, 6-(3-Furyl)-2-(4-methylpiperazin-1-yl)pyridine]
79 ± 14 nM	CN1CCN(c2cccc(-c3ccsc3)n2)CC1 [Compound 58, 2-(4-Methylpiperazin-1-yl)-6-(3-thienyl)pyridine]
1140 ± 154 nM	CN1CCN(c2cccc(-c3ccco3)n2)CC1 [Compound 59, 2-(2-Furyl)-6-(4-methylpiperazin-1-yl)pyridine]
